Test results as given in patent US10501461B2, “Tyrosine amide derivatives as Rho-kinase inhibitors” (CHIESI FARMACEUTICI S.P.A., priority 2017, dated 2019).

What was measured:
Rho kinase 1 (ROCK-I) = Rho kinase 1 (ROCK-I) (Homo sapiens, UniProt Q13464); assay: In vitro Rho kinase inhibitory activity assay (ADP-Glo), Rho kinase 1; format: biochemical; details: 10 μM ATP, 25° C., expressed as range of activity
Summary of the method: (§1)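 ADP-Glo luminescence read-out. Enzyme (ROCK1 or ROCK2) + compound 30 min, then 10 μM ATP final, 1 h, 25 °C; 2.5 μM MBP peptide substrate, Tris pH7.5/MgCl2/BSA/DTT buffer, 1% DMSO. IC50 from variable-slope fit (0–100% fixed); Ki via Cheng-Prusoff.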

Rho kinase 2 (ROCK-II) = Rho kinase 2 (ROCK-II) (Homo sapiens, UniProt O75116); assay: In vitro Rho kinase inhibitory activity assay (ADP-Glo), Rho kinase 2; format: biochemical; details: 10 μM ATP, 25° C., expressed as range of activity
Rho kinase 2 (ROCK-II), sequence (O75116 whole entry): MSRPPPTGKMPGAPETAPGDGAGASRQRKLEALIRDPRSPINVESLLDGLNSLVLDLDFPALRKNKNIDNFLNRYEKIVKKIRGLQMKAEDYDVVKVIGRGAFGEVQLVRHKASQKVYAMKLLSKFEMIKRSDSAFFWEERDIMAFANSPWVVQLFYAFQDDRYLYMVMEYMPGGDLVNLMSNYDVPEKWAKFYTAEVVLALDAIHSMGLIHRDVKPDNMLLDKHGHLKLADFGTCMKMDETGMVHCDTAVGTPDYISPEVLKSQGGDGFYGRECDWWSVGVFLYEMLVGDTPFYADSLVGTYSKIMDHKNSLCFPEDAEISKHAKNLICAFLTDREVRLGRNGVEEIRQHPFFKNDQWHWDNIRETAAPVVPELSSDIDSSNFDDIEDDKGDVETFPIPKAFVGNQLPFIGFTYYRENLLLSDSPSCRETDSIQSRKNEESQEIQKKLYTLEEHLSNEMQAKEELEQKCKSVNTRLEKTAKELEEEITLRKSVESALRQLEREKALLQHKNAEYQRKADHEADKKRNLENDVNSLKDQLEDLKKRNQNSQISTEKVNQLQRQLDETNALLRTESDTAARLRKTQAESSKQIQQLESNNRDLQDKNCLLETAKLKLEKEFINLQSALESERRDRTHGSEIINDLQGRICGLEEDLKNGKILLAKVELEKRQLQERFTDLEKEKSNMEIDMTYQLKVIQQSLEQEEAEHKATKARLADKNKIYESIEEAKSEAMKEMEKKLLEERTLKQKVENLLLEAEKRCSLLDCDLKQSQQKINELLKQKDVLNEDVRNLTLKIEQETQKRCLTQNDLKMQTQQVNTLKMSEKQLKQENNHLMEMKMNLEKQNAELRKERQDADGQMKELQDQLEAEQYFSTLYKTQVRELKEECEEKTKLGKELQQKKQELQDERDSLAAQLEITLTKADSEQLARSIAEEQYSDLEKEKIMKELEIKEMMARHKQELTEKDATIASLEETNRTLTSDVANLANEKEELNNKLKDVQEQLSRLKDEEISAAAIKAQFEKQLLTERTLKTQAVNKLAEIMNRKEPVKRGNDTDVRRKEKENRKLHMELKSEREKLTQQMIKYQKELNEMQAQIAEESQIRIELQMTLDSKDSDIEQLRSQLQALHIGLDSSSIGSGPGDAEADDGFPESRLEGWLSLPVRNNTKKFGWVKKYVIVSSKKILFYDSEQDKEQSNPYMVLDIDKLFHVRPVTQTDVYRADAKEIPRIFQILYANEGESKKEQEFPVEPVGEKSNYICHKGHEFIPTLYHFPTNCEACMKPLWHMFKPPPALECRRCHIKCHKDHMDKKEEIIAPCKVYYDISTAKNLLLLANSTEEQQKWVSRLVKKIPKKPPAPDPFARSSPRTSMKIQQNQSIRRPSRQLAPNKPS
Summary of the method: as §1

Rho kinase 1 (ROCK-I), sequence (Q13464 whole entry): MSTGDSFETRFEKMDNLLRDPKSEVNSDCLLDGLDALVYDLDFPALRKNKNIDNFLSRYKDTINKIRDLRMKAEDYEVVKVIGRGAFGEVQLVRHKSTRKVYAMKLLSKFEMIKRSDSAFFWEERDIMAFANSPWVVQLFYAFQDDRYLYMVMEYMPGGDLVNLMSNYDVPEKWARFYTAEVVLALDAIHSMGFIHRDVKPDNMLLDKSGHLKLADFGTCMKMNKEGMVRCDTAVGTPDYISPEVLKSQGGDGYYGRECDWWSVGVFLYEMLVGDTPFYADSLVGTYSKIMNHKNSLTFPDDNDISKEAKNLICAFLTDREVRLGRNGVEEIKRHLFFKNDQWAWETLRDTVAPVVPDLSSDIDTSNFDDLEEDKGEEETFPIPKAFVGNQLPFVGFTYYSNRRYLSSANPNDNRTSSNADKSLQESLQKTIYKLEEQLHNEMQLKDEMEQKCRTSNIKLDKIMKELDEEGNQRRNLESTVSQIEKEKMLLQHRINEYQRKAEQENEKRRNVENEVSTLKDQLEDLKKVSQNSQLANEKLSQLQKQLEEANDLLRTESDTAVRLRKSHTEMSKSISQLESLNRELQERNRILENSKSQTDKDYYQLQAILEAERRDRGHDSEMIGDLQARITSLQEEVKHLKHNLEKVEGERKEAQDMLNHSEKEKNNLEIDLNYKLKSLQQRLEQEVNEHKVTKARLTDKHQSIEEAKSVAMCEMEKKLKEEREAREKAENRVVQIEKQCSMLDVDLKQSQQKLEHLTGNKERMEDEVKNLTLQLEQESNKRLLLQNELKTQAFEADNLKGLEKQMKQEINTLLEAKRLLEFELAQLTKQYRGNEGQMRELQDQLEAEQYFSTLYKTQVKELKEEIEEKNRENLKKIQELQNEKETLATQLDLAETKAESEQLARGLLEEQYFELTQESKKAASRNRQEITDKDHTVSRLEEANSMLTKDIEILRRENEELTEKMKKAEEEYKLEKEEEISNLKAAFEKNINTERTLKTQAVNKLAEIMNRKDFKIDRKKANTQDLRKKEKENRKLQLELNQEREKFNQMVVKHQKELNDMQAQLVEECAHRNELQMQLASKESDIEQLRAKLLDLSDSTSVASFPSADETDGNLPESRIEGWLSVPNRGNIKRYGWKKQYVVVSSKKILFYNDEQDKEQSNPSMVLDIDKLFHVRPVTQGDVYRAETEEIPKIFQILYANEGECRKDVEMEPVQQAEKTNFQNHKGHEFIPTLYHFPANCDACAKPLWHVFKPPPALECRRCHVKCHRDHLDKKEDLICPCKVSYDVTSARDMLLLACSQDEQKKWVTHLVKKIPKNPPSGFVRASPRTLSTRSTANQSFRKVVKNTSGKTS

| SMILES | Ki (Rho kinase 1 (ROCK-I)) [nM] | Ki (Rho kinase 2 (ROCK-II)) [nM] |
| --- | --- | --- |
| Cc1c[nH]c2nccc(Oc3ccc(C[C@H](N)C(=O)N4CCC(N(C)C)CC4)cc3F)c12 [Example 14, (S)-2-amino-1-(4-(dimethylamino)piperidin-1-yl)-3-(3-fluoro-4-((3-methyl-1H-pyrrolo[2,3-b]pyridin-4-yl)oxy)phenyl)propan-1-one] | < 3 | < 3 |
| Cc1c[nH]c2nccc(Oc3ccc(C[C@H](N)C(=O)N4C[C@@H](C)N(C)[C@@H](C)C4)cc3F)c12 [Example 17, (S)-2-amino-3-(3-fluoro-4-((3-methyl-1H-pyrrolo[2,3-b]pyridin-4-yl)oxy)phenyl)-1-((3S,5R)-3,4,5-trimethylpiperazin-1-yl)propan-1-one] | < 3 | < 3 |
| Cc1c[nH]c2nccc(Oc3ccc(C[C@H](N)C(=O)NC4CCCCC4)cc3F)c12 [Example 20, (S)-2-amino-N-cyclohexyl-3-(3-fluoro-4-((3-methyl-1H-pyrrolo[2,3-b]pyridin-4-yl)oxy)phenyl)propanamide] | < 3 | < 3 |
| Cc1c[nH]c2nccc(Oc3ccc(C[C@H](N)C(=O)N4CCN(C(=O)C5CC5)CC4)cc3F)c12 [Example 170, (S)-2-amino-1-(4-(cyclopropanecarbonyl)piperazin-1-yl)-3-(3-fluoro-4-((3-methyl-1H-pyrrolo[2,3-b]pyridin-4-yl)oxy)phenyl)propan-1-one] | < 3 | < 3 |
| N[C@@H](Cc1ccc(Oc2ccnc3[nH]ccc23)cc1)C(=O)NCC1CCCCC1 [Example 107, (S)-3-(4-((1H-pyrrolo[2,3-b]pyridin-4-yl)oxy)phenyl)-2-amino-N-(cyclohexylmethyl)propanamide] | < 3 | < 3 |
| N[C@@H](Cc1ccc(Oc2ccnc3[nH]ccc23)cn1)C(=O)NC1CCCCC1 [Example 227, (S)-3-(5-((1H-pyrrolo[2,3-b]pyridin-4-yl)oxy)pyridin-2-yl)-2-amino-N-cyclohexylpropanamide] | > 30 | > 30 |
| Cc1c[nH]c2nccc(Oc3ccc(CC(N)C(=O)N4CCN(C)CC4)cc3F)c12 (stereo not shown) [Example 59, 2-amino-3-(3-fluoro-4-((3-methyl-1H-pyrrolo[2,3-b]pyridin-4-yl)oxy)phenyl)-1-(4-methylpiperazin-1-yl)propan-1-one] | < 3 | < 3 |
| Cc1c[nH]c2nccc(Oc3ccc(C[C@H](N)C(=O)NCC4CN(C)C4)cc3F)c12 [Example 47, (S)-2-amino-3-(3-fluoro-4-((3-methyl-1H-pyrrolo[2,3-b]pyridin-4-yl)oxy)phenyl)-N-((1-methylazetidin-3-yl)methyl)propanamide] | < 3 | < 3 |
| N[C@@H](Cc1ccc(Oc2ccnc3[nH]cc(-c4ccncc4)c23)cc1)C(=O)N1CCN(Cc2ccccc2)CC1 [Example 192, (S)-2-amino-1-(4-benzylpiperazin-1-yl)-3-(4-((3-(pyridin-4-yl)-1H-pyrrolo[2,3-b]pyridin-4-yl)oxy)phenyl)propan-1-one] | < 3 | < 3 |
| N[C@@H](Cc1ccc(Oc2ccnc3[nH]cc(Cl)c23)cc1)C(=O)NC1CCCCC1 [Example 191, (S)-2-amino-3-(4-((3-chloro-1H-pyrrolo[2,3-b]pyridin-4-yl)oxy)phenyl)-N-cyclohexylpropanamide] | < 3 | < 3 |
| Cc1c[nH]c2nccc(Oc3ccc(CC(N)C(=O)N4CCN(Cc5ccccc5)CC4)cc3F)c12 (single isomer, unassigned) [Example 132B, 2-amino-1-(4-benzylpiperazin-1-yl)-3-(3-fluoro-4-((3-methyl-1H-pyrrolo[2,3-b]pyridin-4-yl)oxy)phenyl)propan-1-one] | 3 to 30 | < 3 |
| Cc1c[nH]c2nccc(Oc3ccc(C[C@H](N)C(=O)N4CCN(Cc5cnn(C)c5)CC4)cc3F)c12 [Example 163, (S)-2-amino-3-(3-fluoro-4-((3-methyl-1H-pyrrolo[2,3-b]pyridin-4-yl)oxy)phenyl)-1-(4-((1-methyl-1H-pyrazol-4-yl)methyl)piperazin-1-yl)propan-1-one] | < 3 | < 3 |
| Cc1c[nH]c2nccc(Oc3ccc(C[C@H](N)C(=O)N4CCN(Cc5cccnc5)CC4)cc3F)c12 [Example 28, (S)-2-amino-3-(3-fluoro-4-((3-methyl-1H-pyrrolo[2,3-b]pyridin-4-yl)oxy)phenyl)-1-(4-(pyridin-3-ylmethyl)piperazin-1-yl)propan-1-one] | < 3 | < 3 |
| Cc1c[nH]c2nccc(Oc3ccc(C[C@H](N)C(=O)NCCc4ccncc4)cc3)c12 [Example 89, (S)-2-amino-3-(4-((3-methyl-1H-pyrrolo[2,3-b]pyridin-4-yl)oxy)phenyl)-N-(2-(pyridin-4-yl)ethyl)propanamide] | < 3 | < 3 |
| Cc1c[nH]c2ncnc(Oc3ccc(C[C@H](N)C(=O)N4CCC(c5ccncc5)CC4)cc3F)c12 [Example 122, (S)-2-amino-3-(3-fluoro-4-((5-methyl-7H-pyrrolo[2,3-d]pyrimidin-4-yl)oxy)phenyl)-1-(4-(pyridin-4-yl)piperidin-1-yl)propan-1-one] | 3 to 30 | < 3 |
| Cc1c[nH]c2nccc(Oc3ccc(CC(N)C(=O)NCCc4ccncc4)cc3F)c12 (stereo not shown) [Example 57, 2-amino-3-(3-fluoro-4-((3-methyl-1H-pyrrolo[2,3-b]pyridin-4-yl)oxy)phenyl)-N-(2-(pyridin-4-yl)ethyl)propanamide] | < 3 | < 3 |
| N[C@@H](Cc1ccc(Oc2ccnc3[nH]cc(-c4cnoc4)c23)cc1)C(=O)N1CCN(Cc2ccccc2)CC1 [Example 198, (S)-2-amino-1-(4-benzylpiperazin-1-yl)-3-(4-((3-(isoxazol-4-yl)-1H-pyrrolo[2,3-b]pyridin-4-yl)oxy)phenyl)propan-1-one] | < 3 | < 3 |
| CN(C)CCNC(=O)[C@@H](N)Cc1ccc(Oc2ccnc3[nH]ccc23)cc1 [Example 95, (S)-3-(4-((1H-pyrrolo[2,3-b]pyridin-4-yl)oxy)phenyl)-2-amino-N-(2-(dimethylamino)ethyl)propanamide] | > 30 | > 30 |
| Cc1c[nH]c2nccc(Oc3ccc(C[C@H](N)C(=O)N4CCN(C(=O)c5ccc(CN(C)C)cc5)CC4)cc3F)c12 [Example 172, (S)-2-amino-1-(4-(4-((dimethylamino)methyl)benzoyl)piperazin-1-yl)-3-(3-fluoro-4-((3-methyl-1H-pyrrolo[2,3-b]pyridin-4-yl)oxy)phenyl)propan-1-one] | < 3 | < 3 |
| CCn1nccc1-c1c[nH]c2nccc(Oc3ccc(C[C@H](N)C(=O)N4CCN(Cc5ccccc5)CC4)cc3)c12 [Example 193, (S)-2-amino-1-(4-benzylpiperazin-1-yl)-3-(4-((3-(1-ethyl-1H-pyrazol-5-yl)-1H-pyrrolo[2,3-b]pyridin-4-yl)oxy)phenyl)propan-1-one] | 3 to 30 | 3 to 30 |
| N[C@@H](Cc1ccc(Oc2ccnc3[nH]ccc23)cc1)C(=O)Nc1ccccc1 [Example 109, (S)-3-(4-((1H-pyrrolo[2,3-b]pyridin-4-yl)oxy)phenyl)-2-amino-N-phenylpropanamide] | 3 to 30 | 3 to 30 |
| Cc1c[nH]c2nccc(Oc3ccc(CC(N)C(=O)N4CCN(Cc5ccc(F)cc5)CC4)cc3F)c12 (stereo not shown) [Example 74, 2-amino-3-(3-fluoro-4-((3-methyl-1H-pyrrolo[2,3-b]pyridin-4-yl)oxy)phenyl)-1-(4-(4-fluorobenzyl)piperazin-1-yl)propan-1-one] | < 3 | < 3 |
| CNC(=O)C(Cc1ccc(Oc2ccnc3[nH]ccc23)cc1)NCC1CCCCC1 (stereo not shown) [Example 185, 3-(4-((1H-pyrrolo[2,3-b]pyridin-4-yl)oxy)phenyl)-2-((cyclohexylmethyl)amino)-N-methylpropanamide] | > 30 | > 30 |
| N[C@@H](Cc1ccc(Oc2ccnc3[nH]cc(CO)c23)c(F)c1)C(=O)N1CCN(Cc2ccccc2)CC1 [Example 207, (S)-2-amino-1-(4-benzylpiperazin-1-yl)-3-(3-fluoro-4-((3-(hydroxymethyl)-1H-pyrrolo[2,3-b]pyridin-4-yl)oxy)phenyl)propan-1-one] | < 3 | < 3 |
| Cc1c[nH]c2nccc(Oc3ccc(C[C@@H](C(=O)NC4CCCCC4)N(C)C)cc3)c12 [Example 184, (S)—N-cyclohexyl-2-(dimethylamino)-3-(4-((3-methyl-1H-pyrrolo[2,3-b]pyridin-4-yl)oxy)phenyl)propanamide] | < 3 | < 3 |
| CN1CCC(NC(=O)[C@@H](N)Cc2ccc(Oc3ccnc4[nH]cc(C#N)c34)c(F)c2)CC1 [Example 222, (S)-2-amino-3-(4-((3-cyano-1H-pyrrolo[2,3-b]pyridin-4-yl)oxy)-3-fluorophenyl)-N-(1-methylpiperidin-4-yl)propanamide] | < 3 | < 3 |
| Cc1c[nH]c2nccc(Oc3ccc(C[C@@H](N)C(=O)NC4CCCCC4)cc3F)c12 [Example 148, (R)-2-amino-N-cyclohexyl-3-(3-fluoro-4-((3-methyl-1H-pyrrolo[2,3-b]pyridin-4-yl)oxy)phenyl)propanamide] | < 3 | < 3 |
| COCCN1CCN(C(=O)C(N)Cc2ccc(Oc3ccnc4[nH]cc(C)c34)c(F)c2)CC1 (stereo not shown) [Example 19, 2-amino-3-(3-fluoro-4-((3-methyl-1H-pyrrolo[2,3-b]pyridin-4-yl)oxy)phenyl)-1-(4-(2-methoxyethyl)piperazin-1-yl)propan-1-one] | < 3 | < 3 |
| Cc1c[nH]c2nccc(Oc3ccc(C[C@H](N)C(=O)N4CC(CN(C)C)C4)cc3F)c12 [Example 48, (S)-2-amino-1-(3-((dimethylamino)methyl)azetidin-1-yl)-3-(3-fluoro-4-((3-methyl-1H-pyrrolo[2,3-b]pyridin-4-yl)oxy)phenyl)propan-1-one] | < 3 | < 3 |
